Laboratory results reported in US20090036507A1, “BIS (CYANOPHENYL) METHYL-TRIAZOLE FOR USE IN PREVENTION OF BREAST CANCER” (priority 2001, published 2009).

Experiments:
[1] = system: aromatase transgenic mice; experiment: Effect on uterus and ovary histo-morphological features / normal endocrinological functions; format: in vivo
Description: The skin containing the mammary fat pads was fixed in 10% neutral buffered formalin for at least 24 h. The mammary glands were then dissected free from skin and processed for histological examinations (D. Medina, Preneoplastic lesions in mouse mammary tumorigenesis, Methods Cancer Res. 7 (1973) 3-53. 514). Routine section of mammary tissues, uterus and ovary were prepared after fixation by embedding in paraf.n, sectioning at 5 μM, and staining with H&E. To immunolocalize aromatase expression, 5 μM thick sections of aromatase and nontransgenic mammary gland tissue were used. After deparaffination and rehydration in xylene and ethanol, nonspecific sites were blocked by incubating with 1% normal goat serum in 0.05M Tris-HCl buffer. After decanting the reagents, the sections were covered with rabbit polyclonal antibody to rat aromatase synthetic peptide in 1:100 dilution (aromatase antibody was obtained from Dr. Evan Simpson, University of Texas Southwestern Medical Center, Dallas, Tex.; currently at Prince Henry's Institute, Clayton, Vic., Australia). The samples were incubated overnight at 4° C. in a humidied chamber. After three washings with 0.05M Tris-HCl buffer, the slides were incubated with alkaline phosphate conjugated secondary antibody for 30 min at room temperature and washings were repeated and sections were incubated with 1% fast red/naphthol AS phospate solution for 5 min. Sections were washed again and cover slipped and staining pattern was observed using light microscope.
Aged (about 16-20 weeks old) virgin aromatase transgenic females were used to investigate the effect of the aromatase inhibitor, COMPOUND I, as a chemopreventive agent against the preneoplastic and neoplastic changes induced in mammary glands of these mice. In this study, age-matched transgenic females were divided into four groups, one group (n=10) served as control group, the other groups received daily s.c. injection of COMPOUND I and three different doses; 0.25, 05, 1.0 μg COMPOUND I per animal in 100 μl of 0.3% hydroxy propyl cellulose (in phospate buffered saline). […]

estradiol = experiment: Serum estradiol levels (double antibody radioimmunoassay); format: in vivo, mice; conditions: for circulating estrogen (estradiol) level: control 12.5 pg/ml, no significant difference
Description: (§1) Aged (about 16-20 weeks old) virgin aromatase transgenic females were used to investigate the effect of the aromatase inhibitor, COMPOUND I, as a chemopreventive agent against the preneoplastic and neoplastic changes induced in mammary glands of these mice. In this study, age-matched transgenic females were divided into four groups, one group (n=10) served as control group, the other groups received daily s.c. injection of COMPOUND I and three different doses; 0.25, 05, 1.0 μg COMPOUND I per animal in 100 μl of 0.3% hydroxy propyl cellulose (in phospate buffered saline). Control animals were given s.c. injection of vehicle. COMPOUND I was a gift from Drs. Ajay Bhatnagar and Dean Evans of Novartis Pharma (Basel, Switzerland). At the end of the 6-week treatment, mammary glands were removed and one gland each was used for histological analysis. All other glands were pooled then used for biochemical analysis as described below. Along with the mammary glands, uterus and ovaries was collected for biochemical and histological analyses.
Blood from both control and COMPOUND I-treated groups was collected by cardiac puncture directly before harvesting tissues. Serum concentrations of estradiol were measured by double antibody radioimmunoassay using commercially available reagents (Diagnostic Products Corp., Los Angeles, Calif.). […] Assaying increasing volumes of serum from 50 to 200 μl produced a displacement line parallel to the standard curve. Intra-assay and inter assay coefficients of variation averaged <10.0 and 6.7%, respectively. FSH levels were measured using a standard double antibody radioimmunoassay. Purified FSH obtained from NIH hormone resource was used as a standard. Differences in mean estradiol or FSH levels were compared, and significance was determined using paired Student's t-test.

[2] = system: follicle stimulating hormone; experiment: Serum FSH levels (double antibody radioimmunoassay); format: in vivo, mice
Excerpt: as §1, with “[…]; […]” for “other groups received daily s.c. injection of COMPOUND I and three different doses; 0.25, 05, 1.0 μg COMPOUND I per animal in 100 μl of 0.3% hydroxy”
Blood from both control and COMPOUND I-treated groups was collected by cardiac puncture directly before harvesting tissues. Serum concentrations of estradiol were measured by double antibody radioimmunoassay using commercially available reagents (Diagnostic Products Corp., Los Angeles, Calif.). […] FSH levels were measured using a standard double antibody radioimmunoassay. […] Differences in mean estradiol or FSH levels were compared, and significance was determined using paired Student's t-test.

[3] = system: estrogen receptor (ER), progesterone receptor (PR), cyclin D1 and proliferating cell nuclear antigen (PCNA); experiment: Western blot of ER, PR, cyclin D1 and PCNA protein levels in mammary tissues; format: in vivo, mice; conditions: 5 μg
Description: as §1
(§2) To isolate proteins from mammary gland and uterine tissue of both control and COMPOUND I-treated aromatase animals, the tissues were homogenized in lysis buffer. Equal amounts (60 ug) of protein from each sample was separated on a denaturing polyacrylamide gel and transferred to a nylon membrane. […]

lactoferrin, ER, and PR = experiment: Western blot of lactoferrin, ER and PR protein levels in uterus tissue; format: in vivo, mice; conditions: 1.0 μg per day per animal
Description: as §1, §2

[4] = system: aromatase transgenic mice; conditions: 5 μg/mouse/daily, previous studies; cited from earlier work

**Q.** Which “effect on histo-morphological features of the uterus and ovary” value (“effect on histo-morphological features” below) ([1]; 0.25 μg per day per animal) does the source give for `N#Cc1ccc(C(c2ccc(C#N)cc2)n2cncn2)cc1` [COMPOUND I] here?
**A.** no effect

**Q.** What about the “effect on histo-morphological features” value ([1]; 0.5 μg per day per animal) of the same compound?
**A.** no effect

**Q.** What about the “effect on histo-morphological features” value ([1]; 1 μg per day per animal) of the same compound?
**A.** no effect

**Q.** What about the “circulating estrogen (estradiol) level” value (estradiol; 0.25 μg per day per animal) of the same compound?
**A.** 12.1 pg/mL

**Q.** And the “circulating estrogen (estradiol) level” value (estradiol; 0.5 μg per day per animal)?
**A.** 12.5 pg/mL

**Q.** What about the “circulating levels of estradiol” value (estradiol; dose of 0.5 μg per day per animal as printed in last sentence of b103) of the same compound?
**A.** 2 pg/mL

**Q.** And the “circulating FSH level” value ([2]; 0.5 μg, no significant difference to control)?
**A.** 200 ng/mL

**Q.** And the “circulating FSH level” value ([2]; 5.0 μg, difference to control very significant (paired Student's t-test))?
**A.** 480 ng/mL

**Q.** What about the “level of PCNA, reduction” value [3] of the same compound?
**A.** 50%

**Q.** What about the “decrease in expression of the uterine marker lactoferrin vs control” value (lactoferrin, ER, and PR) of the same compound?
**A.** 1.8 fold

**Q.** And the “effect on normal endocrinological functions” value [4]?
**A.** affected some normal endocrinological functions
